According to PubChem BioAssay AID248 (DTP/NCI, 2004):
Several values for one entry are separate records, joined by “and”; a condition that tells them apart may be missing. Equal values may be shown once. Inconclusive results and toxic doses are left out. Cut-off read from the data, not from the text of the source: active = T/C of 150% or more; inactive = T/C below 125%.

Test system: L1210 leukemia ip in BDF1 mice, survival T/C
Experiment: NCI In Vivo Anticancer Drug Screen. Data for tumor model L1210 Leukemia (intraperitoneal) in B6D2F1 (BDF1) mice
Settings: endpoint: mean survival time, higher = longer survival
Summary of the method: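 Mice bearing the transplanted tumor received compound or vehicle. Survival of the treated group was divided by that of the vehicle-treated control group to give the ratio.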

[1] = dose: 100.0 mg/kg/injection, schedule: Q04DX003 (ip), vehicle: saline with Tween-80
[2] = dose: 200.0 mg/kg/injection, schedule: Q04DX003 (ip), vehicle: saline with Tween-80
[3] = dose: 400.0 mg/kg/injection, schedule: Q04DX003 (ip), vehicle: saline with Tween-80
[4] = dose: 100.0 mg/kg/injection, schedule: Q01DX009 (ip), vehicle: Klucel (hydroxypropylcellulose) (HPC)
[5] = dose: 200.0 mg/kg/injection, schedule: Q01DX009 (ip), vehicle: Klucel (hydroxypropylcellulose) (HPC)
[6] = dose: 400.0 mg/kg/injection, schedule: Q01DX009 (ip), vehicle: Klucel (hydroxypropylcellulose) (HPC)
[7] = dose: 25.0 mg/kg/injection, schedule: Q01DX009 (ip), vehicle: saline
[8] = dose: 25.0 mg/kg/injection, schedule: Q04DX003 (ip), vehicle: saline
[9] = dose: 50.0 mg/kg/injection, schedule: Q01DX009 (ip), vehicle: saline
[10] = dose: 50.0 mg/kg/injection, schedule: Q04DX003 (ip), vehicle: saline
[11] = dose: 100.0 mg/kg/injection, schedule: Q01DX009 (ip), vehicle: saline
[12] = dose: 100.0 mg/kg/injection, schedule: Q01DX001 (ip), vehicle: Klucel (hydroxypropylcellulose) (HPC)
[13] = dose: 200.0 mg/kg/injection, schedule: Q01DX001 (ip), vehicle: Klucel (hydroxypropylcellulose) (HPC)
[14] = dose: 400.0 mg/kg/injection, schedule: Q01DX001 (ip), vehicle: Klucel (hydroxypropylcellulose) (HPC)
[15] = dose: 100.0 mg/kg/injection, schedule: Q04DX002 (ip), vehicle: saline with Tween-80
[16] = dose: 200.0 mg/kg/injection, schedule: Q04DX002 (ip), vehicle: saline with Tween-80
[17] = dose: 400.0 mg/kg/injection, schedule: Q04DX002 (ip), vehicle: saline with Tween-80
[18] = dose: 100.0 mg/kg/injection, schedule: Q04DX003 (ip), vehicle: Klucel (hydroxypropylcellulose) (HPC)
[19] = dose: 200.0 mg/kg/injection, schedule: Q04DX003 (ip), vehicle: Klucel (hydroxypropylcellulose) (HPC)
[20] = dose: 400.0 mg/kg/injection, schedule: Q04DX003 (ip), vehicle: Klucel (hydroxypropylcellulose) (HPC)
[21] = dose: 25.0 mg/kg/injection, schedule: Q04DX002 (ip), vehicle: saline
[22] = dose: 50.0 mg/kg/injection, schedule: Q04DX002 (ip), vehicle: saline

Measured: T/C

Nc1nc(N)c2c(n1)CNC2
inactive: dose: 100.0 mg/kg/injection, schedule: Q01DX001 (ip), vehicle: carboxymethylcellulose (CMC) 112 % of control | dose: 200.0 mg/kg/injection, schedule: Q01DX001 (ip), vehicle: carboxymethylcellulose (CMC) 112 % of control | dose: 400.0 mg/kg/injection, schedule: Q01DX001 (ip), vehicle: carboxymethylcellulose (CMC) 104 % of control

CC(C)C(=O)Nc1ccc(S(=O)(=O)Cl)cc1
inactive: [1] 95 % of control | [2] 90 % of control | [3] 86 % of control

CC(=O)OCC1OC(N2C(=O)/C(=C/c3ccc4ccccc4c3)SC2=S)C(OC(C)=O)C(OC(C)=O)C1OC(C)=O (stereo unspecified)
inactive: dose: 25.0 mg/kg/injection, schedule: Q01DX005 (ip), vehicle: other 92 % of control | dose: 50.0 mg/kg/injection, schedule: Q01DX005 (ip), vehicle: other 97 % of control

O=C(C1C2C=CC(CC2)C1C(=O)N1CCCCC1)N1CCCCC1 (stereo unspecified)
inactive: [1] 96 % of control | [2] 100 % of control | [3] 96 % of control

c1ccc(C2OC(c3ccccc3)C(c3ccccc3)OC2c2ccccc2)cc1 (stereo unspecified)
inactive: [4] 92 % of control | [5] 97 % of control | [6] 92 % of control

CC(=O)N(NC(C)C)C(C)C
inactive: dose: 6.25 mg/kg/injection, schedule: Q01DX009 (ip), vehicle: saline 104 % of control | dose: 12.5 mg/kg/injection, schedule: Q01DX009 (ip), vehicle: saline 93 % of control | [7] 94 % of control | [8] 98 % of control | [9] 100 % of control | [10] 98 % of control | [11] 104 % of control | dose: 100.0 mg/kg/injection, schedule: Q04DX003 (ip), vehicle: saline 93 % of control

CN1CN(c2ccccc2)C2(CCN(Cc3nc4ccc(Cl)cc4[nH]3)CC2)C1=O
inactive: [12] 101 % of control | [13] 93 % of control | [14] 91 % of control

CC(=O)N/C(N)=N/N=C(C)/C=N\N
inactive: dose: 15.0 mg/kg/injection, schedule: Q01DX Z (ip), vehicle: carboxymethylcellulose (CMC) 96 % of control | dose: 30.0 mg/kg/injection, schedule: Q01DX Z (ip), vehicle: carboxymethylcellulose (CMC) 96 % of control | dose: 60.0 mg/kg/injection, schedule: Q01DX Z (ip), vehicle: carboxymethylcellulose (CMC) 101 % of control | dose: 120.0 mg/kg/injection, schedule: Q01DX Z (ip), vehicle: carboxymethylcellulose (CMC) 101 % of control | dose: 120.0 mg/kg/injection, schedule: Q01DX Z (oral), vehicle: carboxymethylcellulose (CMC) 111 % of control

CCN(C(=O)NC(C)(C)C)c1cccc(C)c1
inactive: dose: 12.5 mg/kg/injection, schedule: Q01DX009 (ip), vehicle: saline with Tween-80 108 % of control | dose: 25.0 mg/kg/injection, schedule: Q01DX009 (ip), vehicle: saline with Tween-80 105 % of control and 106 % of control | dose: 100.0 mg/kg/injection, schedule: Q01DX001 (ip), vehicle: saline with Tween-80 122 % of control | [15] 101 % of control and 86 % of control | [1] 102 % of control | [16] 94 % of control and 97 % of control | [2] 105 % of control | dose: 400.0 mg/kg/injection, schedule: Q01DX001 (ip), vehicle: saline with Tween-80 103 % of control | [17] 101 % of control

Cc1oc2c(O)ccc(N=Nc3cccc([N+](=O)[O-])c3)c2c1C
inactive: [5] 93 % of control | [6] 90 % of control

O=C(COc1cc(Cl)cc(Cl)c1)NCc1ccc(Cl)cc1
inactive: [4] 91 % of control | [18] 95 % of control | [5] 88 % of control | [19] 95 % of control | [6] 95 % of control | [20] 88 % of control

CCN1C(=O)C(CC)(Cc2ccccc2)C(=O)NC1=S (stereo unspecified)
inactive: dose: 75.0 mg/kg/injection, schedule: Q01DX001 (ip), vehicle: alkali diluted with saline 103 % of control | dose: 75.0 mg/kg/injection, schedule: Q01DX001 (ip), vehicle: other 108 % of control | dose: 150.0 mg/kg/injection, schedule: Q01DX001 (ip), vehicle: alkali diluted with saline 98 % of control | dose: 150.0 mg/kg/injection, schedule: Q01DX001 (ip), vehicle: other 105 % of control | dose: 300.0 mg/kg/injection, schedule: Q01DX001 (ip), vehicle: alkali diluted with saline 108 % of control | dose: 300.0 mg/kg/injection, schedule: Q01DX001 (ip), vehicle: other 103 % of control

COC(OC)c1nc(N)nc(N)c1-c1ccccc1
inactive: dose: 100.0 mg/kg/injection, schedule: Q01DX008 (ip), vehicle: Klucel (hydroxypropylcellulose) (HPC) 108 % of control | [18] 103 % of control | [19] 95 % of control | [20] 94 % of control

CCCCCCCCN
inactive: dose: 25.0 mg/kg/injection, schedule: Q01DX001 (ip), vehicle: saline 103 % of control | [7] 108 % of control and 111 % of control | [21] 101 % of control and 105 % of control | [8] 101 % of control | dose: 50.0 mg/kg/injection, schedule: Q01DX001 (ip), vehicle: saline 101 % of control | [9] 104 % of control | [22] 100 % of control and 105 % of control | [10] 98 % of control | dose: 100.0 mg/kg/injection, schedule: Q01DX001 (ip), vehicle: saline 94 % of control | [11] 111 % of control

OC/C=[CH]\[Sn]([c]1ccccc1)([c]1ccccc1)[c]1ccccc1
inactive: [15] 95 % of control | [16] 119 % of control | [17] 119 % of control

CCCC(C)OP(=O)(OC(C)CC)OC(C)CC (stereo unspecified)
inactive: [4] 97 % of control | [5] 97 % of control

COC1=C(OC)C(=O)c2ccccc2C1=O
inactive: dose: 12.5 mg/kg/injection, schedule: Q01DX009 (ip), vehicle: Klucel (hydroxypropylcellulose) (HPC) 95 % of control | dose: 25.0 mg/kg/injection, schedule: Q01DX009 (ip), vehicle: Klucel (hydroxypropylcellulose) (HPC) 92 % of control | dose: 50.0 mg/kg/injection, schedule: Q01DX009 (ip), vehicle: Klucel (hydroxypropylcellulose) (HPC) 98 % of control

COc1cc2c(cc1OC)C1(NCC2)C(=O)Nc2c(C)cc(Cl)cc21 (stereo unspecified)
inactive: [21] 103 % of control | [22] 92 % of control | dose: 100.0 mg/kg/injection, schedule: Q04DX002 (ip), vehicle: saline 95 % of control and 100 % of control | dose: 200.0 mg/kg/injection, schedule: Q04DX002 (ip), vehicle: saline 92 % of control | dose: 400.0 mg/kg/injection, schedule: Q04DX002 (ip), vehicle: saline 90 % of control

COc1ccc(NC(Nc2ccc(OC)cc2)C(Cl)(Cl)Cl)cc1
inactive: dose: 100.0 mg/kg/injection, schedule: Q01DX009 (ip), vehicle: other 90 % of control | dose: 100.0 mg/kg/injection, schedule: Q04DX003 (ip), vehicle: other 87 % of control | dose: 200.0 mg/kg/injection, schedule: Q01DX009 (ip), vehicle: other 93 % of control | dose: 200.0 mg/kg/injection, schedule: Q04DX003 (ip), vehicle: other 97 % of control | dose: 400.0 mg/kg/injection, schedule: Q01DX009 (ip), vehicle: other 123 % of control | dose: 400.0 mg/kg/injection, schedule: Q04DX003 (ip), vehicle: other 114 % of control

CC(C)=Cc1ccccc1
inactive: dose: 100.0 mg/kg/injection, schedule: Q01DX009 (ip), vehicle: saline with Tween-80 98 % of control | [1] 95 % of control | dose: 200.0 mg/kg/injection, schedule: Q01DX009 (ip), vehicle: saline with Tween-80 93 % of control | [2] 87 % of control | [3] 94 % of control

O=[As](O)(O)c1ccc(N=NSc2ncnc3nc[nH]c23)cc1
inactive: dose: 7.5 mg/kg/injection, schedule: Q01DX015 (ip), vehicle: carboxymethylcellulose (CMC) 112 % of control | dose: 15.0 mg/kg/injection, schedule: Q01DX015 (ip), vehicle: carboxymethylcellulose (CMC) 115 % of control

CSc1nc2nc[nH]c(=O)c2cc1C#N
inactive: [12] 91 % of control | [13] 96 % of control | [14] 106 % of control
